Data from patent US7939534B2, “Certain chemical entities, compositions, and methods” (Cytokinetics, Inc., priority 2006, dated 2011).
“And” between values parts separate entries of the source, which are not always exact repeats. Equal entries are not always repeated.

Target: T1, chicken gizzard smooth muscle myosin subfragment-1 chemically crosslinked to either cardiac or skeletal actin (Gallus gallus, UniProt P10587)
T1 construct: chicken gizzard smooth muscle myosin subfragment-1; from tissue; host or cells: chicken gizzard
Assay: Dose dependent smooth muscle myosin ATPase modulation (pyruvate kinase/horseradish peroxidase/pyruvate oxidase-coupled ATPase assay)
Format: biochemical
Conditions: read-out: IC50 Arithmetic Mean
Description: In Vitro Model of Dose Dependent Smooth Muscle Myosin Atpase Modulation
Screening assays were performed using a pyruvate kinase and lactate dehydrogenase-coupled ATPase assay containing the following reagents: Potassium PIPES (50 mM ), MgCl2 (3 mM ), KCl (100 mM ), ATP (0.15 mM ), DTT (1 mM ), BSA (0.1 mg/ml), NADH (0.5 mM ), PEP (1.5 mM ), pyruvate kinase (4 U/ml), lactate dehydrogenase (8 U/ml), and antifoam (50 ppm) (concentrations expressed are final assay concentrations). The pH was adjusted to 6.80 at 22° C. by addition of potassium hydroxide. Lead optimization assays were performed with a more sensitive pyruvate kinase/horseradish peroxidase/pyruvate oxidase-coupled ATPase assay containing the following reagents: Potassium PIPES (12 mM ), MgCl2 (2 mM ), KCl (100 mM ), ATP (0.15 mM ), BSA (0.05 mg/ml), potassium phosphate (2 mM ), amplex red (0.1 mM ), PEP (0.1 mM ), pyruvate kinase (4 U/ml), horseradish peroxidase (0.5 U/ml), pyruvate oxidase (0.5 U/ml), and antifoam (50 ppm) (concentrations expressed are final assay concentrations). The pH was adjusted to 7.00 at 22° C. by addition of potassium hydroxide.
The protein components specific to this assay are chicken gizzard smooth muscle myosin subfragment-1 that has been chemically crosslinked to either cardiac or skeletal actin using an excess of 1-Ethyl-3-[3-dimethylaminopropyl]carbodiimide hydrochloride and N-hydroxysuccinimide. The exact concentration of the crosslinked smooth muscle myosin in the assay is determined empirically, by titration to achieve a desired rate of ATP hydrolysis. The concentration varies between protein preparations due to variations in the fraction of active molecules in each preparation.
Compound dose response assays are performed by first preparing a dilution series of test compound, each with an assay mixture containing potassium PIPES, MgCl2, KCl, ATP, BSA, potassium phosphate, amplex red, PEP, crosslinked smooth muscle actomyosin (subfragment-1), antifoam, and water. The assay is started by adding an equal volume of solution containing potassium Pipes, MgCl2, KCl, BSA, potassium phosphate, pyruvate kinase, horseradish peroxidase, pyruvate oxidase, antifoam, and water. ATP hydrolysis is monitored by measuring the fluorescence of amplex red (excitation at 480 nm, emission at 615 nm). The resulting dose response curve is fit by the 4 parameter equation y=Bottom+((Top−Bottom)/(1+((IC50/X)^Hill))). The IC50 is defined as the concentration at which ATPase activity is midway between the top and bottom of the dose response curve.

IC50	Structure (SMILES)
687 nM	O=C(NCc1cccnc1)c1ccc(N2CC=CCC2)nc1NCCc1cccc(F)c1 [Compound 47, (2-{[2-(3-fluorophenyl)ethyl]amino}-6-(1,2,5,6-tetrahydropyridyl)(3-pyridyl))-N-(3-pyridylmethyl)carboxamide]
274 nM	O=C(NCc1cccnc1)c1ccc(N2CCC(F)(F)C2)nc1NCCc1cccc(F)c1 [Compound 100, (6-(3,3-difluoropyrrolidinyl)-2-{[2-(3-fluorophenyl)ethyl]amino}(3-pyridyl))-N-(3-pyridylmethyl)carboxamide]
1570 nM	O=C(NCc1cccnc1)c1ccc(N2CCSCC2)nc1NCCc1cccc(F)c1 [Compound 121, (2-{[2-(3-fluorophenyl)ethyl]amino}-6-(1,4-thiazaperhydroin-4-yl)(3-pyridyl))-N-(3-pyridylmethyl)carboxamide]
10500 nM	O=C(NCc1cccnc1)c1ccc(N2CCC[C@@H]2CO)nc1NCCc1cccc(F)c1 [Compound 88, (6-[(2R)-2-(hydroxymethyl)pyrrolidinyl]-2-{[2-(3-fluorophenyl)ethyl]amino}(3-pyridyl))-N-(3-pyridylmethyl)carboxamide]
931 nM	CNC(=O)CNC(=O)c1ccc(N2CCC(F)(F)C2)nc1NCCc1cccc(F)c1 [Compound 97, 2-[(6-(3,3-difluoropyrrolidinyl)-2-{[2-(3-fluorophenyl)ethyl]amino}(3-pyridyl))carbonylamino]-N-methylacetamide]
47600 nM	CC(=O)N(C)C[C@@H]1CCN(c2ccc(C(=O)NCc3cccnc3)c(NCCc3cccc(F)c3)n2)C1 [Compound 8, N-{[(3R)-1-(6-{[2-(3-fluorophenyl)ethyl]amino}-5-[N-(3-pyridylmethyl)carbamoyl](2-pyridyl))pyrrolidin-3-yl]methyl}-N-methylacetamide]
1060 nM	CNC(=O)CNC(=O)c1ccc(N2CCC(F)C2)nc1NCCc1cccc(F)c1 (stereo in doubt) [Compound 93, 2-[(6-((3S)-3-fluoropyrrolidinyl)-2-{[2-(3-fluorophenyl)ethyl]amino}(3-pyridyl))carbonylamino]-N-methylacetamide]
2670 nM	O=C(NCc1cccnc1)c1ccc(N2CCOCC2)nc1NCCc1cccc(F)c1 [Compound 87, (2-{[2-(3-fluorophenyl)ethyl]amino}-6-morpholin-4-yl(3-pyridyl))-N-(3-pyridylmethyl)carboxamide]
31.3 nM	NCc1ncccc1CNC(=O)c1ccc(N2CC[C@@H](F)C2)nc1NCCc1cccc(F)c1 [Compound 39, (6-((3R)-3-fluoropyrrolidinyl)-2-{[2-(3-fluorophenyl)ethyl]amino}(3-pyridyl))-N-{[2-(aminomethyl)(3-pyridyl)]methyl}carboxamide]
452 nM	CN(C)C(=O)N1CC=C(c2ccc(C(=O)NCc3cccnc3)c(NCCc3cccc(F)c3)n2)CC1 [Compound 69, (6-[1-(N,N-dimethylcarbamoyl)(4-1,2,5,6-tetrahydropyridyl)]-2-{[2-(3-fluorophenyl)ethyl]amino}(3-pyridyl))-N-(3-pyridylmethyl)carboxamide]
5400 nM	O=C(NCc1cccnc1)c1ccc(N2CCCCC2=O)nc1NCCc1cccc(F)c1 [Compound 10, (2-{[2-(3-fluorophenyl)ethyl]amino}-6-(2-oxopiperidyl)(3-pyridyl))-N-(3-pyridylmethyl)carboxamide]
1020 nM	O=C(NCc1cccnc1)c1ccc(N2CC[C@H](O)C2)nc1NCCc1cccc(F)c1 [Compound 18, (6-((3S)-3-hydroxypyrrolidinyl)-2-{[2-(3-fluorophenyl)ethyl]amino}(3-pyridyl))-N-(3-pyridylmethyl)carboxamide]
154 nM	O=C(NCc1cccnc1)c1ccc(N2CC=CC2)nc1NCCc1cccc(F)c1 [Compound 29, (2-{[2-(3-fluorophenyl)ethyl]amino}-6-(3-pyrrolinyl)(3-pyridyl))-N-(3-pyridylmethyl)carboxamide]
1560 nM	CCOC(=O)C1CCN(c2ccc(C(=O)NCc3cccnc3)c(NCCc3cccc(F)c3)n2)CC1 [Compound 112, ethyl 1-(6-{[2-(3-fluorophenyl)ethyl]amino}-5-[N-(3-pyridylmethyl)carbamoyl]-2-pyridyl)piperidine-4-carboxylate]
1120 nM	CNC(=O)CNC(=O)c1ccc(N2CCCCC2)nc1NCCc1cccc(F)c1 [Compound 106, 2-[(2-{[2-(3-fluorophenyl)ethyl]amino}-6-piperidyl(3-pyridyl))carbonylamino]-N-methylacetamide]
295 nM	O=C(NCc1cccnc1)c1cc(Br)c(N2CCCC2)nc1NCCc1cccc(F)c1 [Compound 70, (5-bromo-2-{[2-(3-fluorophenyl)ethyl]amino}-6-pyrrolidinyl(3-pyridyl))-N-(3-pyridylmethyl)carboxamide]
3160 nM	CCOC(=O)N1CCN(c2ccc(C(=O)NCc3cccnc3)c(NCCc3cccc(F)c3)n2)CC1 [Compound 125, ethyl 4-(6-{[2-(3-fluorophenyl)ethyl]amino}-5-[N-(3-pyridylmethyl)carbamoyl]-2-pyridyl)piperazinecarboxylate]
1820 nM	O=C(NCc1cccnc1)c1ccc(C2=CCC3(CC2)OCCO3)nc1NCCc1cccc(F)c1 [Compound 60, (6-(1,4-dioxaspiro[4.5]dec-7-en-8-yl)-2-{[2-(3-fluorophenyl)ethyl]amino}(3-pyridyl))-N-(3-pyridylmethyl)carboxamide]
3440 nM and 3690 nM	CNC(=O)CNC(=O)c1ccc(N2CC[C@@H](O)C2)nc1NCCc1cccc(F)c1 [2-[(6-((3R)-3-hydroxypyrrolidinyl)-2-{[2-(3-fluorophenyl)ethyl]amino}(3-pyridyl))carbonylamino]-N-methylacetamide]
29700 nM	O=C(NCc1cccnc1)c1ccc(N2CC(O)CCC2=O)nc1NCCc1cccc(F)c1 (stereo not drawn) [Compound 20, (2-{[2-(3-fluorophenyl)ethyl]amino}-6-(5-hydroxy-2-oxopiperidyl)(3-pyridyl))-N-(3-pyridylmethyl)carboxamide]
100 nM	COC(=O)N1CC=C(c2ccc(C(=O)NCc3cccnc3)c(NCCc3cccc(F)c3)n2)CC1 [Compound 61, methyl 4-(6-{[2-(3-fluorophenyl)ethyl]amino}-5-[N-(3-pyridylmethyl)carbamoyl]-2-pyridyl)-1,2,5,6-tetrahydropyridinecarboxylate]
2220 nM	NCc1cccc(CNC(=O)c2ccc(N3CC[C@@H](O)C3)nc2NCCc2cccc(F)c2)n1 [Compound 103, (6-((3R)-3-hydroxypyrrolidinyl)-2-{[2-(3-fluorophenyl)ethyl]amino}(3-pyridyl))-N-{[6-(aminomethyl)(2-pyridyl)]methyl}carboxamide]
29.7 nM	NCc1ncccc1CNC(=O)c1ccc(N2CCCC2)nc1NCCc1cccc(F)c1 [Compound 41, N-{[2-(aminomethyl)(3-pyridyl)]methyl}(2-{[2-(3-fluorophenyl)ethyl]amino}-6-pyrrolidinyl(3-pyridyl))carboxamide]
75100 nM	CN(C)C[C@@H]1CCN(c2ccc(C(=O)NCc3cccnc3)c(NCCc3cccc(F)c3)n2)C1 [Compound 9, (6-{(3S)-3-[(dimethylamino)methyl]pyrrolidinyl}-2-{[2-(3-fluorophenyl)ethyl]amino}(3-pyridyl))-N-(3-pyridylmethyl)carboxamide]
76000 nM	CN(C)[C@@H]1CCN(c2ccc(C(=O)NCc3cccnc3)c(NCCc3cccc(F)c3)n2)C1 [Compound 92, (6-[(3R)-3-(dimethylamino)pyrrolidinyl]-2-{[2-(3-fluorophenyl)ethyl]amino}(3-pyridyl))-N-(3-pyridylmethyl)carboxamide]

Structure (SMILES)	IC50
CC(C)(C)OC(=O)NCc1ncccc1CNC(=O)c1cc(F)c(N2CC[C@@H](O)C2)nc1NCCc1cccc(F)c1 [Compound 54, (6-((3R)-3-hydroxypyrrolidinyl)-5-fluoro-2-{[2-(3-fluorophenyl)ethyl]amino}(3-pyridyl))-N-[(2-{[(tert-butoxy)carbonylamino]methyl}(3-pyridyl))methyl]carboxamide]	6780 nM
CC(C)(C)OC(=O)NCC1CCN(c2ccc(C(=O)NCc3cccnc3)c(NCCc3cccc(F)c3)n2)CC1 [Compound 109, (tert-butoxy)-N-{[1-(6-{[2-(3-fluorophenyl)ethyl]amino}-5-[N-(3-pyridylmethyl)carbamoyl](2-pyridyl))(4-piperidyl)]methyl}carboxamide]	4560 nM
